Source: patent US11033527B2, “Non-hormonal treatment of the genitourinary syndrome of menopause” (IMMUGEN PHARMA LLC, priority 2018, dated 2021)
Several values for one entry are separate records, joined by “and”; a condition that tells them apart may be missing. Identical values can stand only once.

Key:
EpiVaginal tissues = assay: macrophage infiltration in treated EpiVaginal tissues (barrier function), four hours in the presence of TNF-α; type: cell-based; settings: vs. 28% into the untreated tissue; macrophages cultured with the tissue for four hours in the presence of TNF-α
Text: FIG. 1 is a graph showing macrophage infiltration in hormone (estrogen) and L759,633-treated EpiVaginal tissues. L759,633 had the most striking effect on macrophage infiltration: only 6% of cells infiltrated into the tissue past 90 μm (vs. 28% into the untreated tissue, p<0.006 ANOVA). […] U=untreated control; E=estradiol; P=progesterone; and IMG=the cannabinoid L759,633.
Many of the above-noted genes are differentially regulated by estradiol in menopausal tissue. […] With respect to the barrier function, only 6% of macrophages which had been cultured with the tissue for four hours in the presence of TNF-α were capable of infiltrating into the tissue past 90 um (vs. 28% into the untreated tissue, p<0.006 ANOVA). […] This would indicate that the increased gene expression of the proteins involved with cross-linking of the keratin fibers, filagrins and desmosomal cadherins are all contributing to the fortification of the vaginal mucosa which would prevent the infiltration of pathogens and prevent the loss of solutes and water from within the tissue.

[1] = target: endocannabinoid receptor type 2 (CB2) (Homo sapiens, UniProt P34972); settings: cited from earlier work
Chain of endocannabinoid receptor type 2 (CB2) (P34972 whole entry, species assumed): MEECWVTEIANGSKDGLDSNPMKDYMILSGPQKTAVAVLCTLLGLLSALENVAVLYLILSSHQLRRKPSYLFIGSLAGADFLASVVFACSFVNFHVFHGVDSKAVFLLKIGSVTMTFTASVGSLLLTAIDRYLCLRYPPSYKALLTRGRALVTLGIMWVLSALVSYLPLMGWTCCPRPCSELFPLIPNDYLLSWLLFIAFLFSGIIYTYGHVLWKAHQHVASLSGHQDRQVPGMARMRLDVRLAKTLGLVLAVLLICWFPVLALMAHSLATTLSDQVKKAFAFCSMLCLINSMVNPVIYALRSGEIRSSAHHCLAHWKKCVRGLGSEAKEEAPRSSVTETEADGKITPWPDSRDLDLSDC

vaginal tissue construct = assay: microarray analysis of differential gene expression (Affymetrix Human Gene 1.0 ST arrays), tissues treated for seven days via culture medium; type: cell-based
Text: The data from the Affymetrix Human Gene 1.0 ST arrays were normalized using the Robust Multiarray Average (RMA) algorithm and a Chip Definition File (CDF) that maps the probes on the array to unique Entrez Gene identifiers. The result is a matrix in which each column corresponds to a sample. The expression values are log 2-transformed by default.
By using a fold change >1.5, an analysis of differentially expressed genes was done to identify those genes which were involved in the cornified envelope, keratinocyte differentiation, cell differentiation, epidermis development, epithelial cell differentiation, junctional proteins and signaling, immune response and innate immune response.

[2] = down-regulated by this fold, given without sign

**Q.** With `CCCCCCC(C)(C)c1cc(OC)c2c(c1)OC(C)(C)[C@@H]1CC=C(C)C[C@@H]21` [L759,633] as the compound, how does the “macrophages infiltrated into the tissue past 90 μm” value (EpiVaginal tissues) read?
**A.** 6%

**Q.** What about the “agonist type by receptor internalization” value [1] of the same compound?
**A.** partial agonist

**Q.** What about the “SPRR2D Fold Change” value (vaginal tissue construct) of the same compound?
**A.** 3.431 fold

**Q.** And the “WFDC12 Fold Change” value (vaginal tissue construct)?
**A.** 7.884 fold

**Q.** What about the CFB down-regulation (vaginal tissue construct; [2]) of the same compound?
**A.** 2.285 fold

**Q.** And the CFH down-regulation (vaginal tissue construct; [2])?
**A.** 1.769 fold

**Q.** What about the “AGR2 Fold Change” value (vaginal tissue construct; gene Anterior gradient homolog 2 (Xenopus laevis)) of the same compound?
**A.** −3.1 fold

**Q.** And the “CXCL8 Expr Fold Change” value (vaginal tissue construct; gene C-X-C motif chemokine ligand 8)?
**A.** −2.298 fold

**Q.** What about the “CXCL17 Expr Fold Change” value (vaginal tissue construct; gene C-X-C motif chemokine ligand 17) of the same compound?
**A.** −2.038 fold

**Q.** What about the “CXCR2 Expr Fold Change” value (vaginal tissue construct; gene C-X-C motif chemokine receptor 2) of the same compound?
**A.** 1.871 fold

**Q.** And the “CD14 Expr Fold Change” value (vaginal tissue construct; gene CD14 molecule)?
**A.** −2.154 fold

**Q.** And the “CD74 Expr Fold Change” value (vaginal tissue construct; gene CD74 molecule)?
**A.** −2.103 fold

**Q.** And the “CD151 Expr Fold Change” value (vaginal tissue construct; gene CD151 molecule (Raph blood group))?
**A.** −1.664 fold

**Q.** What about the “CD244 Expr Fold Change” value (vaginal tissue construct; gene CD244 molecule) of the same compound?
**A.** 2.837 fold

**Q.** And the “CDSN Fold Change” value (vaginal tissue construct; gene Corneodesmosin)?
**A.** 9.465 fold

**Q.** What about the “CCL28 Expr Fold Change” value (vaginal tissue construct; gene C−C motif chemokine ligand 28) of the same compound?
**A.** −2.504 fold

**Q.** And the “FYB1 Expr Fold Change” value (vaginal tissue construct; gene FYN binding protein 1)?
**A.** −2.604 fold

**Q.** And the “IFNE Fold Change” value (vaginal tissue construct; gene Interferon Epsilon)?
**A.** 5.496 fold

**Q.** And the “IL19 Fold Change” value (vaginal tissue construct; gene Interleukin 19)?
**A.** −3.5 fold

**Q.** And the “NLRP10 Fold Change” value (vaginal tissue construct; gene NLR family pyrin domain containing 10)?
**A.** 15.93 fold

**Q.** And the “RNAse7 Fold Change” value (vaginal tissue construct; gene RNAse family)?
**A.** 8.158 fold

**Q.** And the “TIAM1 Expr Fold Change” value (vaginal tissue construct; gene T cell lymphoma invasion and metastasis 1)?
**A.** 2.249 fold

**Q.** What about the “TNFAIP8 Expr Fold Change” value (vaginal tissue construct; gene TNF alpha induced protein 8) of the same compound?
**A.** −1.601 fold

**Q.** And the “TNFRSF10C Expr Fold Change” value (vaginal tissue construct; gene TNF receptor superfamily member 10c)?
**A.** −2.458 fold

**Q.** And the “TNFRSF11B Expr Fold Change” value (vaginal tissue construct; gene TNF receptor superfamily member 11b)?
**A.** −2.012 fold

**Q.** What about the “TSPAN1 Fold Change” value (vaginal tissue construct; gene Tetraspanin 1) of the same compound?
**A.** −2.3 fold

**Q.** What about the “TGM1 Fold Change” value (vaginal tissue construct; gene Transglutaminase 1) of the same compound?
**A.** 1.966 fold

**Q.** What about the “TGM3 Fold Change” value (vaginal tissue construct; gene Transglutaminase 3) of the same compound?
**A.** 30.074 fold and 30.1 fold

**Q.** And the “TGM5 Fold Change” value (vaginal tissue construct; gene Transglutaminase 5)?
**A.** 2.237 fold

**Q.** And the “TRIM31 Fold Change” value (vaginal tissue construct; gene Tripartite motif-containing 31)?
**A.** −5.9 fold

**Q.** And the “VTCN1 Expr Fold Change” value (vaginal tissue construct; gene V-set domain containing T cell activation inhibitor 1)?
**A.** −4.666 fold

**Q.** And the “WFDC2 Fold Change” value (vaginal tissue construct; gene WAP four-disulfide core domain 2)?
**A.** −2.8 fold

**Q.** What about the “WFDC5 Fold Change” value (vaginal tissue construct; gene WAP four-disulfide core domain 5) of the same compound?
**A.** 3.139 fold

**Q.** And the “ALOX12B Fold Change” value (vaginal tissue construct; gene arachidonate 12-lipoxygenase, 12R type)?
**A.** 6.6 fold and 6.683 fold

**Q.** What about the “ALOX12 Fold Change” value (vaginal tissue construct; gene arachidonate 12-lipoygenase) of the same compound?
**A.** 1.5 fold

**Q.** And the “ALOXE3 Fold Change” value (vaginal tissue construct; gene arachidonate lipoxygenase 3)?
**A.** 3.659 fold

**Q.** What about the “ASS1 Fold Change” value (vaginal tissue construct; gene arginosuccinate synthetase 1) of the same compound?
**A.** −2.8 fold

**Q.** What about the “CLDN17 Fold Change” value (vaginal tissue construct; gene claudin 17) of the same compound?
**A.** 11 fold

**Q.** What about the “CCDC59 Expr Fold Change” value (vaginal tissue construct; gene coiled-coil domain containing 59) of the same compound?
**A.** −1.795 fold

**Q.** What about the “CSF2RB Expr Fold Change” value (vaginal tissue construct; gene colony stimulating factor 2 receptor beta common subunit) of the same compound?
**A.** 2.79 fold

**Q.** And the “CFH Expr Fold Change” value (vaginal tissue construct; gene complement factor H)?
**A.** −1.769 fold

**Q.** And the “CNFN Fold Change” value (vaginal tissue construct; gene cornifelin)?
**A.** 1.62 fold

**Q.** And the “CRCT1 Fold Change” value (vaginal tissue construct; gene cysteine-rich C-terminal 1)?
**A.** 2.6 fold

**Q.** And the “DMKN Fold Change” value (vaginal tissue construct; gene dermokine)?
**A.** 2.362 fold

**Q.** What about the “DCS3 Fold Change” value (vaginal tissue construct; gene descmocollin 3) of the same compound?
**A.** 1.9 fold

**Q.** What about the “DSC1 Fold Change” value (vaginal tissue construct; gene desmocollin 1) of the same compound?
**A.** 10.494 fold

**Q.** What about the “DSC2 Fold Change” value (vaginal tissue construct; gene desmocollin 2) of the same compound?
**A.** 1.7 fold

**Q.** What about the “DSG1 Fold Change” value (vaginal tissue construct; gene desmoglein 1) of the same compound?
**A.** 9.191 fold and 8.7 fold

**Q.** What about the “FLG Fold Change” value (vaginal tissue construct; gene filaggrin) of the same compound?
**A.** 4.549 fold

**Q.** What about the “FLG2 Fold Change” value (vaginal tissue construct; gene filaggrin family member 2) of the same compound?
**A.** 10.449 fold

**Q.** And the “GYS2 Fold Change” value (vaginal tissue construct; gene glycogen synthase 2 (liver))?
**A.** 2.9 fold

**Q.** And the “KPRP Fold Change” value (vaginal tissue construct; gene human keratinocyte proline rich protein)?
**A.** 25.318 fold and 25.3 fold

**Q.** And the “IFIT5 Expr Fold Change” value (vaginal tissue construct; gene interferon induced protein with tetratricopeptide repeats 5)?
**A.** −2.183 fold

**Q.** What about the “IFIH1 Expr Fold Change” value (vaginal tissue construct; gene interferon induced with helicase C domain 1) of the same compound?
**A.** −1.922 fold

**Q.** And the “IRF1 Expr Fold Change” value (vaginal tissue construct; gene interferon regulatory factor 1)?
**A.** −3.253 fold

**Q.** What about the “IRF9 Expr Fold Change” value (vaginal tissue construct; gene interferon regulatory factor 9) of the same compound?
**A.** −1.535 fold

**Q.** And the “IL1RL2 Expr Fold Change” value (vaginal tissue construct; gene interleukin 1 receptor like 2)?
**A.** 2.508 fold

**Q.** And the “IL7R Expr Fold Change” value (vaginal tissue construct; gene interleukin 7 receptor)?
**A.** −2.852 fold

**Q.** What about the “IL18BP Expr Fold Change” value (vaginal tissue construct; gene interleukin 18 binding protein) of the same compound?
**A.** 1.532 fold

**Q.** And the “IL23A Expr Fold Change” value (vaginal tissue construct; gene interleukin 23 subunit alpha)?
**A.** 2.677 fold
